Experimental data taken from patent US20260327198A1, “2-DIARYLMETHYL-4-AMINOTETRAHYDROPYRAN SULFONIMIDAMIDES AS ANTICANCER, ANTIINFLAMMATORY, ANTIFIBROTIC AND NEUROPROTECTIVE AGENTS” (Atux Iskay LLC, priority 2022, published 2026).

How the values were obtained:
[1] = system: mouse models of allergic airway disease; conditions: small molecule activators of PP2A; cited from earlier work
[2] = system: D425 medulloblastoma cells; experiment: D425 medulloblastoma cell viability / growth inhibition (CellTiter-Glo); format: cell-based; conditions: n = 3, 0.1% DMSO
Protocol: D425 medulloblastoma cells were purchased from SigmaAldrich. D425 meduloblastoma cells were cultured in improved Dulbecco's modified Eagle's medium (DMEM) Richter's modification supplemented with 20% fetal bovine serum and 1% Penicillin-streptomycin. Incubation was performed at 37° C. and 5% CO2.
D425 cells were seeded at 3000-3500 cells/90 μL growth medium per well on 96-well tissue culture plates. Cells were incubated overnight to allow them to recover. Next day cells were treated with tested compounds and incubated for 48 hours.
Cell Proliferation assays in triplicate were performed at each concentration. Compounds test range was 1-30 μM (0, 5, 10, 15, 20, 25, and 30). The compounds were dissolved in DMSO. A series of dilutions were made in 1% DMSO in growth medium so that the final concentration of DMSO is 0.1% in all of treatments.
After treatment, cells were allowed to equilibrate at room temperature for one hour. Cell proliferation was measured by Luminescence quantification using Promega CellTiter-Glo Luminescent Cell Viability Assay. To perform the assay, 90 μL of Celltiter-Glo substrate was added to each well, plates were shake for 2 minutes and allowed to equilibrate for 10 minutes at room temperature. Luminescence intensity was measured using the Spectramax i3x plate reader.
The Luminescence intensity data were analyzed using the computer software Graphpad Prism. In the absence of the compound, the luminescence intensity (Lt) in each data set was defined as 100% cell viability. The percent cell in the presence of each compound was calculated according to the following equation: % Cell=L/Lt, were L=the luminescence intensity in the presence of the compound.
The values of % cell versus a series of compound concentrations (0, 5, 10, 15, 20, 25, and 30 μM) were then plotted using Nonlinear regression analysis of Sigmoidal dose-response curve. IC50 value was determined by the concentration causing a half-maximal percent activity.

[3] = system: phosphatase activity in ApoE transfected A172 glioblastoma cells; experiment: Cellular in vitro phosphatase activation assay (Malachite Green, ApoE cDNA transfected A172 cells); format: cell-based; conditions: Homo sapiens, A 172, A172 glioblastoma cells transfected with ApoE cDNA, 24 hours, n = 3, read-out: % increase from ApoE transfected cell at 5 μM test compound concentration
Protocol: Cellular in vitro phosphatase activation assay was performed using the method of Theendakara et al, Molecular and Cellular Neuroscience, 83 (2017), pages 83-91 which is described below:
A172 glioblastoma cells were cultured in Dulbecco's modified Eagle's medium (DMEM) supplemented with 10% fetal bovine serum and 1% Penicillin-streptomycin. Incubation was performed at 37° C. and 5% CO2.
A172 cells were seeded at 5×10^5 cells/2.5 ml growth medium (without antibiotics) per well on 6-well tissue culture plates. Cells were incubated overnight to allow them to recover and reattach. […]
After 24 hrs, cells were washed twice with imidazole buffer and lysed using NP-40 Lysis buffer. […] The amount of phosphate release in the assay was determined by measuring absorbance at 620 nm using the Spectramax i3x plate reader.
The absorbance intensity data were analyzed using the computer software Graphpad Prism. The phosphate concentration for each sample was determined from the standard curve using phosphate standard concentrations. In order to compare samples, the first set (column A) were there was no transfection performed and no compound added, was designated a baseline; the absorbance measurement in this column was set as 100% phosphatase activity.

IC50 ([2]; Medulloblastoma cell, 48 h) [µM]	IC50 ([2]; 48 hours) [µM]	Compound	development of inflammation, airway hyperreactivity in mouse models of allergic airway disease [1]	other results
	9.5	N=S(=O)(N[C@H]1CCOC(C2c3ccccc3CCc3ccccc32)C1)c1ccc(OC(F)(F)F)cc1 (single isomer, unassigned) [Example 4]		
	10.4	N=S(=O)(N[C@H]1CCO[C@@H](C(c2ccc(F)cc2)c2ccc(F)cc2)C1)c1ccc(OC(F)(F)F)cc1 (single isomer, unassigned) [Example 7-isomer2]		
8.3		N=S(=O)(N[C@H]1CCOC(C2c3ccccc3CCc3ccccc32)C1)c1ccc(OC(F)(F)F)cc1 (single isomer, unassigned) [Example 3]		activation at 5 µM [3]: 22%

The remaining lines, values behind:

Compound	IC50 ([2]; Medulloblastoma cell, 48 h) [µM]	IC50 ([2]; 48 hours) [µM]	development of inflammation, airway hyperreactivity in mouse models of allergic airway disease [1]	other results
CCCCCCCOc1ccc(CCC(C)(N)CO)cc1 [AAL(S), 2-amino-4-(4-(heptyloxy)phenyl)-2-methylbutan-1-ol]			inhibited the development of inflammation, airway hyperreactivity	
CCCCCCCCc1ccc(CCC(N)(CO)CO)cc1 [fingolimod]			inhibited the development of inflammation, airway hyperreactivity	
N=S(=O)(N[C@H]1CCO[C@@H](C(c2ccc(F)cc2)c2ccc(F)cc2)C1)c1ccc(OC(F)(F)F)cc1 (single isomer, unassigned) [Example 7-isomer1]	14.3			
